Experiments:
[1] = tested on: CaMK2a, CaMK2b, CaMK2d, CaMK2g; assay: KiNativ profiling in H3255 cells; format: cell-based; conditions: 2.5 µM; Lys2; DLKPENLLLASK
Experimental: H3255 cells were plated with 6.5x10^6 per condition in fresh media in 15 cm plates and treated the 80% confluency for 2 hours with DMSO or 2.5 μM of ZNL-0056. To harvest cells, plates were washed 3 times with cold PBS, then collected by scraping into 4 mL of cold PBS containing protease and phosphatase inhibitors. Cells were pelleted by centrifugation at 1350 g at 4 ℃ for 5 minutes and immediately frozen in liquid nitrogen. The frozen samples were sent to ActivX Biosciences (La Jolla, CA) for the remainder of the KiNativ profiling experiment4. […]

CDK11, CDK8 = assay: KiNativ profiling in H3255 cells; format: cell-based, human; conditions: 2.5 µM; Lys2; DLKPANILVMGEGPER
AKT1 = tested on: T1, AKT1; assay: KiNativ profiling in H3255 cells; format: cell-based, human; conditions: 2.5 µM; ATP Loop; GTFGKVILVK
T1 construct: purchased ActivX Biosciences (KiNativ)
Experimental: (§1) treatment. Cell viability was determined by using CellTiter-Glo (Promega #G7571) according to the manufacturer’s instructions, measuring luminescence using an Envision plate-reader (PerkinElmer Inc.). Dose-response curves were generated using non-linear regression curve fit in GraphPad Prism 9.2.0(GraphPad Software).
(§2) Cellular target engagement assays
(§3) After 6 hours treatment, cells were pelleted, washed with PBS once and lysed with IP lysis buffer (25mMTris-HCl pH 7.4, 150mM NaCl, 1 mM EDTA, 1% NP-40 and 5% glycerol) (Thermo Fisher Scientific, Cat#87788) containing protease/phosphatase inhibitor cocktail (Roche). The protein concentrations were measured by BCA analysis (Pierce). Cell lysates were incubated with 1 μM of biotin conjugated probe (bio-Osimertinib or bio-ZNL-0013) at 4 ℃ overnight, and incubated for 3 more hours at room temperature. Lysates with probe were then incubated with streptavidin beads (Thermo Fisher, #20349) for 2 hours at 4 ℃. The protein-probe complexes on the beads were then subjected to immunoblotting.
(§4) H3255 cells were plated with 6.5x10^6 per condition in fresh media in 15 cm plates and treated the 80% confluency for 2 hours with DMSO or 2.5 μM of ZNL-0056. To harvest cells, plates were washed 3 times with cold PBS, then collected by scraping into 4 mL of cold PBS containing protease and phosphatase inhibitors. Cells were pelleted by centrifugation at 1350 g at 4 ℃ for 5 minutes and immediately frozen in liquid nitrogen. The frozen samples were sent to ActivX Biosciences (La Jolla, CA) for the remainder of the KiNativ profiling experiment4.
(§5) Protein expression and purification
(§6) Human EGFR kinase domain (residues 696-1022) with T790M and V948R mutations was cloned with an N-terminal, protease cleavable His -GST tag. Recombinant protein was expressed in SF9 insect cells using baculovirus generated from the pFastBac system (Thermo Fisher) .
(§7) Briefly, cells at a density of ~2x10^6 cells/mL were infected with 1% (v/v) virus stock and grown for ~72 hours before harvesting and freezing the cell pellet . Infected cells were lysed in buffer A (50 mM Tris pH 8.0, 500 mM NaCl, 5% glycerol, 0.5 mM Tris(2-carboxyethyl)phosphine [TCEP]), ultracentrifuged at >200,000 rcf for 1 h, and the supernatant flo wed through Ni-NTA resin by gravity. The resin was washed with buffer A supplemented with 40 mM imidazole by […]

CCRK = tested on: T2, CCRK; assay: KiNativ profiling in H3255 cells; format: cell-based, human; conditions: 2.5 µM; Lys2; DLKPANLLISASGQLK
T2 construct: purchased ActivX Biosciences (KiNativ)
Experimental: as §1, §2, §3, §4, §5, §6, §7

CDKL3 = tested on: T3, CDKL3; assay: KiNativ profiling in H3255 cells; format: cell-based, human; conditions: 2.5 µM; Lys2; DIKPENILVSQSGITK
T3 construct: purchased ActivX Biosciences (KiNativ)
Experimental: as §1, §2, §3, §4, §5, §6, §7

CHK2 = tested on: T4, CHK2; assay: KiNativ profiling in H3255 cells; format: cell-based, human; conditions: 2.5 µM
T4 construct: purchased ActivX Biosciences (KiNativ)
Experimental: as §1, §2, §3, §4, §5, §6, §7

CaMKK2 = tested on: T5, CaMKK2; assay: KiNativ profiling in H3255 cells; format: cell-based, human; conditions: 2.5 µM
T5 construct: purchased ActivX Biosciences (KiNativ)
Experimental: as §1, §2, §3, §4, §5, §6, §7

JNK1, JNK2, JNK3 = assay: KiNativ profiling in H3255 cells; format: cell-based, human; conditions: 2.5 µM; Lys2; DLKPSNIVVK
Experimental: as §1, §2, §3, §4, §5, §6, §7

MAP3K5 = tested on: T6, MAP3K5; assay: KiNativ profiling in H3255 cells; format: cell-based, human; conditions: 2.5 µM; Lys2; DIKGDNVLINTYSGVLK
T6 construct: purchased ActivX Biosciences (KiNativ)
Experimental: as §1, §2, §3, §4, §5, §6, §7

MAP3K6 = tested on: T7, MAP3K6; assay: KiNativ profiling in H3255 cells; format: cell-based, human; conditions: 2.5 µM; Lys2; DIKGDNVLINTFSGLLK
T7 construct: purchased ActivX Biosciences (KiNativ)
Experimental: as §1, §2, §3, §4, §5, §6, §7

MARK1, MARK2 = assay: KiNativ profiling in H3255 cells; format: cell-based, human; conditions: 2.5 µM; Lys1; EVAVKIIDK
Experimental: as §1, §2, §3, §4, §5, §6, §7

NEK2 = tested on: T8, NEK2; assay: KiNativ profiling in H3255 cells; format: cell-based, human; conditions: 2.5 µM; Lys2; DLKPANVFLDGK
T8 construct: purchased ActivX Biosciences (KiNativ)
Experimental: as §1, §2, §3, §4, §5, §6, §7

PDK1 = tested on: T9, PDK1; assay: KiNativ profiling in H3255 cells; format: cell-based, human; conditions: 2.5 µM; Lys1; EYAIKILEK
T9 construct: purchased ActivX Biosciences (KiNativ)
Experimental: as §1, §2, §3, §4, §5, §6, §7

PIP5K3 = tested on: T10, PIP5K3; assay: KiNativ profiling in H3255 cells; format: cell-based, human; conditions: 2.5 µM; ATP; GGKSGAAFYATEDDRFILK
T10 construct: purchased ActivX Biosciences (KiNativ)
Experimental: as §1, §2, §3, §4, §5, §6, §7

PKN1 = tested on: T11, PKN1; assay: KiNativ profiling in H3255 cells; format: cell-based, human; conditions: 2.5 µM; Lys1; VLLSEFRPSGELFAIKALK
T11 construct: purchased ActivX Biosciences (KiNativ)
Experimental: as §1, §2, §3, §4, §5, §6, §7

RSK1 domain2 = tested on: T12, RSK1 domain2; assay: KiNativ profiling in H3255 cells; format: cell-based, human; conditions: 2.5 µM; Lys2; DLKPSNILYVDESGNPECLR
T12 construct: RSK1 domain2; purchased ActivX Biosciences (KiNativ)
Experimental: as §1, §2, §3, §4, §5, §6, §7

SLK = tested on: T13, SLK; assay: KiNativ profiling in H3255 cells; format: cell-based, human; conditions: 2.5 µM
T13 construct: purchased ActivX Biosciences (KiNativ)
Experimental: as §1, §2, §3, §4, §5, §6, §7

STLK6 = tested on: T14, STLK6; assay: KiNativ profiling in H3255 cells; format: cell-based, human; conditions: 2.5 µM; Lys1; HTPTGTLVTIKITNLENCNEER
T14 construct: purchased ActivX Biosciences (KiNativ)
Experimental: as §1, §2, §3, §4, §5, §6, §7

YANK3 = tested on: T15, YANK3; assay: KiNativ profiling in H3255 cells; format: cell-based, human; conditions: 2.5 µM; Lys2; DVKPDNILLDER
T15 construct: purchased ActivX Biosciences (KiNativ)
Experimental: as §1, §2, §3, §4, §5, §6, §7

[2] = Glutathione (GSH) reactivity; format: in vitro ADME; conditions: glutathione (GSH) in buffer; read-out: half-life of conjugation with glutathione (GSH)
Experimental: Table S3. Glutathione (GSH) reactivity of ZNL-0056
*NGSH1440: the abbreviation of no glutathione. No glutathione is added into NGSH sample
(replaced by buffer) during the 24 hour-incubation R2 is the correlation coefficient of the linear
regression for the determination of kinetic constant.
(1 picture or pasted object on this page, not shown here)

Q: With `C=CC(=O)Nc1cc(C(=O)Nc2nc3cccc(C)c3n2[C@@H]2CCCCN(C(=O)C=C)C2)cs1` [ZNL-0056] as the molecule, how does the Inhibition [1] read?
A: The Inhibition was -8.1%.

Q: And the Inhibition (CDK11, CDK8)?
A: The Inhibition was -0.339%.

Q: And the Inhibition (AKT1)?
A: The Inhibition was -1.6%.

Q: What about the Inhibition (CCRK) of the same molecule?
A: The Inhibition was 2.1%.

Q: What about the Inhibition (CDKL3) of the same molecule?
A: The Inhibition was -6.0%.

Q: And the Inhibition (CHK2; Lys1, VAIKIISK)?
A: Its Inhibition is 23.8%.

Q: And the Inhibition (CHK2; Lys2, DLKPENVLLSSQEEDCLIK)?
A: The Inhibition was 13.8%.

Q: What about the Inhibition (CaMKK2; Lys1, LAYNENDNTYYAMKVLSK) of the same molecule?
A: The Inhibition was 74.6%.

Q: And the Inhibition (CaMKK2; Lys2, DIKPSNLLVGEDGHIK)?
A: Its Inhibition is 73.1%.

Q: What about the Inhibition (JNK1, JNK2, JNK3) of the same molecule?
A: The Inhibition was -5.1%.

Q: What about the Inhibition (MAP3K5) of the same molecule?
A: The Inhibition was -61.4%.

Q: And the Inhibition (MAP3K6)?
A: Its Inhibition is 20.5%.

Q: And the Inhibition (MARK1, MARK2)?
A: The Inhibition was 11.4%.

Q: What about the Inhibition (NEK2) of the same molecule?
A: The Inhibition was -9.4%.

Q: What about the Inhibition (PDK1) of the same molecule?
A: Its Inhibition is 17.6%.

Q: What about the Inhibition (PIP5K3) of the same molecule?
A: The Inhibition was 20.7%.

Q: And the Inhibition (PKN1)?
A: The Inhibition was 8.5%.

Q: What about the Inhibition (RSK1 domain2) of the same molecule?
A: Its Inhibition is 11.8%.

Q: What about the Inhibition (SLK; Lys1, AQNKETSVLAAAKVIDTK) of the same molecule?
A: Its Inhibition is -4.8%.

Q: And the Inhibition (SLK; Lys2, DLKAGNILFTLDGDIK)?
A: The Inhibition was -22.3%.

Q: What about the Inhibition (STLK6) of the same molecule?
A: Its Inhibition is 16.7%.

Q: And the Inhibition (YANK3)?
A: The Inhibition was -11.7%.

Q: What about the half-life [2] of the same molecule?
A: The half-life was 36 min.

Q: What does the source list for `C=CC(=O)Nc1cc(Nc2nccc(-c3cn(C)c4ccccc34)n2)c(OC)cc1N(C)CCN(C)C` [Osimertinib, osimertinib, reference compound]?
A: Inhibition [1]: 3.2%; Inhibition (CDK11, CDK8): 24.8%; Inhibition (AKT1): -19.5%; Inhibition (CCRK): 16.1%; Inhibition (CDKL3): 4.6%; Inhibition (CHK2; Lys1, VAIKIISK): 17.8%; Inhibition (CHK2; Lys2, DLKPENVLLSSQEEDCLIK): 11.1%; Inhibition (CaMKK2; Lys1, LAYNENDNTYYAMKVLSK): 73.3%; Inhibition (CaMKK2; Lys2, DIKPSNLLVGEDGHIK): 60.8%; Inhibition (JNK1, JNK2, JNK3): 13.4%; Inhibition (MAP3K5): 21.0%; Inhibition (MAP3K6): -16.3%; Inhibition (MARK1, MARK2): -15.4%; Inhibition (NEK2): -4.3%; Inhibition (PDK1): -20.7%; Inhibition (PIP5K3): 49.0%; Inhibition (PKN1): -12.2%; Inhibition (RSK1 domain2): -13.9%; Inhibition (SLK; Lys1, AQNKETSVLAAAKVIDTK): -11.7%; Inhibition (SLK; Lys2, DLKAGNILFTLDGDIK): 8.3%; Inhibition (STLK6): 12.6%; Inhibition (YANK3): 1.4%; half-life [2]: 49 min

Reference: paper PMC11212140, “Molecular Bidents with Two Electrophilic Warheads as a New Pharmacological Modality” (ACS Central Science, 2024)
